Laboratory results from US5561042A, “Diamine platinum naphthalimide complexes as antitumor agents” (Cancer Therapy and Research Center, priority 1995, dated 1996).
pIC50: −log10 of the molar value.

Experiments:
[1] = tested on: MCF-7 Human Breast Carcinoma cell line; assay: In vitro growth inhibition (MTT), MCF-7 breast carcinoma; type: cell-based; details: 6 days
From the text: P388 murine leukemic cell line was obtained from the DCT Tumor Repository (National Cancer Institute, Frederick Cancer Research and Development, Frederick Md. 21702). HT29 Human Colon Carcinoma cell line was obtained from the American Type Culture Collection (12301 Parklawn Drive, Rockville, Md. 20852). B16 Melanoma cell line was obtained from DuPont Merck Pharmaceutical Company (Glenolden, Pa. 19036). MCF-7 Human Breast Carcinoma cell line was a gift from Dr. K. Osborne (Department of Medicine, The University of Texas Health Science Center at San Antonio, San Antonio, Tex. 78284). All cell lines were incubated at 37° C. in a humidified atmosphere of 5% CO2 -95% air. Murine B16 melanoma cell line was grown in RPMI 1640 medium supplemented with 10% heat-inactivated fetal bovine serum, 2 mM L-glutamine, 50 units/ml penicillin, 50 μg/ml streptomycin, 25 μg/ml gentamycin, 0.75% sodium bicarbonate, 10 mM HEPES buffer (pH 7.4), and 0.06 mg/ml AntiPPLO. Murine P388 leukemic and the human HT-29 colon adenocarcinoma cell lines were maintained in RPMI 1640 medium supplemented with 10% heat-inactivated fetal bovine serum. MCF-7M human breast adenocarcinoma was maintained in IMEM medium supplemented with 5% non heat-inactivated fetal bovine serum and 1 nM insulin.
Exponentially growing cells (1-2×10^3 cells, unless specified otherwise) in 0.1 ml medium were seeded on day 0 in a 96-well microtiter plate. On day 1, 0.1 ml aliquots of medium containing graded concentrations of test compounds were added in duplicate to the cell plates. After incubation at 37° C. in a humidified incubator for 3 days (P388, B16) or 6 days (HT-29, MCF-7M), the plates were centrifuged briefly and 100 μl of the growth medium was removed. Cell cultures were incubated with 50 μl of 3-(4,5-dimethylthiazol-2-yl)-2,5-diphenyl-tetrazolium bromide [MTT, 1 mg/ml in Dulbecco's phosphate buffered saline (PBS)] for 4 hr at 37° C. The resulting purple formazan precipitate was solubilized with 200 μl of 0.04N HCl in isopropyl alcohol. Absorbance was monitored in a BioRad Model 3550 Microplate Reader at a test wavelength of 570 nm and a reference wavelength of 630 nm. The absorbance was transferred to a PC 486 computer. The IC50 values were determined by a computer program (EZ-ED50) that fit all of the data to the following four-parameterlogistic equation:
Y=((Am -Ao)/(1+(X/IC50)^n))+Ao
where Am is the absorbance of control cells, Ao is the absorbance of cells in the presence of highest agent concentration, Y is the observed absorbance, X is the agent concentration, IC50 is the concentration of agent that inhibits the cell growth by 50% of control cells (based on the absorbance) and n is the slope of the curve.

[2] = molecular target: poly (dA.dT) - poly (dA.dT); assay: Ethidium bromide displacement, poly(dA.dT)-poly(dA.dT); type: binding; details: 1 μM DNA, 1.26 μM ethidium bromide, pH 7.0, read-out: FI50, poly (dA.dT) - poly (dA.dT)
Protocol: A 10× Binding solution was prepared by combining 0.93 ml of an aqueous NaCl solution (5M), 2.0 ml of an aqueous Tris HCl (500 mM) solution, 0.1 ml of an EDTA solution (500 mM) and 46.97 ml of water. The resultant solution was 93 mM in NaCl, 20 mM in Tris HCl, and 1 mM in EDTA. Stock DNA solution were prepared as follows: Poly (dG·dC)-(dG·dC) (ε254=8.4/mM; 27-7910-02), poly(dA·dT)-(dA·dT) (ε262=6.6/mM; 27-7870-02), and lambda DNA (ε260-7.0/mM; 27-4111-01) were purchased from Pharmacia. Solutions were prepared by resuspending either poly (dG·dC)-(dG·dC) or poly(dA·dT)-(dA·dT)in 1 ml of 10× DNA Binding Solution. Lambda DNA is already in solution as purchased.
Poly (dG·dC)-(dG·dC), poly(dA·dt)-(dA·dt) and lambda DNA concentrations were determined as follows: 980 μl of 10× DNA Binding Solution was pipetted into a 1 ml cuvette. A blank was run on the UV spectrophotometer. 20 μl of the DNA stock of unknown concentration was then added into the cuvette. The sample was then scanned between 210 nm to 500 nm and the absorbance recorded at 254 nm for poly(dG·dC)-(dG·dC), at 262 nm for poly(dA·dT)-(dA·dT) and at 260 nm for lambda DNA. The solution was transferred to a clean tube. This procedure was followed for three different solutions with the absorbance taken as the average of the three. The concentration of poly(dG·dC)-(dG·dC) stock was calculated to be A254 /8.4×1000 (in μM). The concentration of poly(dA·dT)-(dA·dT) stock was calculated to be A262 /6.6×1000 (in μM). The concentration of lambda DNA stock was calculated to be A260 /7.0×1000 (in μM).
The binding of the bis-naphthalimides to DNA and to synthetic polynucleotide duplexes was determined by an ethidium bromide displacement assay that measures the reduction of fluorescence when ethidium bromide is displaced from DNA (Baguley, 1981). The fluorescence intensity of a 3 ml solution containing 9.3 mM NaCl, 2 mM Tris-HCl (pH 7.0), 100 μM EDTA, 1 μM DNA (in nucleotides) and 1.26 μM ethidium bromide in a quartz cuvette was measured at the excitation (546 nm) and emission (600 nm) wavelengths on a Shimadzu RF5000U spectrofluorometer. Graded concentrations of agent were then added and the fluorescence intensity was measured. The concentration of compound required to reduce the fluorescence intensity by 50% of that of control (FI50) was determined. Therefore, the lower the FI50 the stronger the binding affinity a particular compound has for DNA.
The ability of bis-naphthalimides of the present invention and the known anti-cancer agents compound 22 and DMP840, (R,R)-2,2'[1,2-ethanediylbis[imino(1-methyl-2,1-ethanediyl)]]-bis[5-nitro- 1H benz[de]isoquinoline-1,3-(2H)dione]dimethanesulfonate, to bind to DNA and to synthetic oligonucleotide duplexes was measured using an ethidium bromide displacement assay. Ethidium bromide, a known DNA intercalator, has no fluorescence in the absence of DNA; however, fluorescence intensity increases when ethidium bromide binds to DNA. The ethidium bromide displacement assay measures the decrease in fluorescence intensity caused by DNA-bound ethidium bromide with DNA interacting agents.

With “8-(3'-nitro-1',8'-naphthalimide)-3,6-diazaoctylamine dichloroplatinum(II) [Compound 21]” as the substance, how does the pIC50 [1] read?
The pIC50 was 7.18.

What about the pIC50 [2] of the same substance?
Its pIC50 is 6.76.
